Laboratory results: the supplement of paper PMC10307832

What was measured:
Experiment in all cases: relative viability (nuclei count vs DMSO), 5 days (fraction); higher = more cells survive
[1] = compound: C1=CC2=NC=CN=C2C=C1/C=C/3\C(=O)NC(=O)S3 + CC(=O)Nc1cccc(-n2c(=O)n(C3CC3)c(=O)c3c(Nc4ccc(I)cc4F)n(C)c(=O)c(C)c32)c1 [Trametinib] (partner 0.02 µM)
In short: (§1)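 Relative viability divides the nuclei count in treated wells by that in vehicle wells. Lung cancer cell lines were seeded in 1536-well plates, dosed by pin tool the next day, and fixed and stained after 5 days in one step with final 0.05% Triton X-100, 1% formaldehyde and 1 ug/ml Hoechst. Dosing was a single drug or a fixed anchor-drug dose plus five library-drug doses (not always all listed) in √10 steps, and values are medians of duplicate plates imaged at 4×.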

BGJ398 + Navitoclax = compound: CCN1CCN(c2ccc(Nc3cc(N(C)C(=O)Nc4c(Cl)c(OC)cc(OC)c4Cl)ncn3)cc2)CC1 [BGJ398] + CC1(C)CCC(c2ccc(Cl)cc2)=C(CN2CCN(c3ccc(C(=O)NS(=O)(=O)c4ccc(N[C@H](CCN5CCOCC5)CSc5ccccc5)c(S(=O)(=O)C(F)(F)F)c4)cc3)CC2)C1 [Navitoclax] (partner 0.5 µM)
In short: as §1

BGJ398 = compound: CCN1CCN(c2ccc(Nc3cc(N(C)C(=O)Nc4c(Cl)c(OC)cc(OC)c4Cl)ncn3)cc2)CC1 [BGJ398]
In short: (§2)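 Viability is treated-well nuclei as a fraction of vehicle-well nuclei, reported as the median across plates. Before counting, lung cancer cell lines were kept overnight at 37 °C in 1536-well plates, pinned with five √10-spaced library-drug doses on vehicle-anchored plates, and left 5 days without medium change, then fixed, permeabilised and Hoechst-stained in one step, imaged at 4× and counted by MetaXpress. A plate passed only if control CV was below 25% and at least one doubling occurred.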

[2] = compound: C1=CC2=NC=CN=C2C=C1/C=C/3\C(=O)NC(=O)S3
In short: as §2

Cell Line	relative viability ([1]; first compound 0.02 µM)	relative viability ([1]; first compound 0.06325 µM)	relative viability ([1]; first compound 0.2 µM)	relative viability ([1]; first compound 0.6325 µM)	relative viability ([1]; first compound 2 µM)	relative viability (BGJ398 + Navitoclax; first compound 0.01 µM)	relative viability (BGJ398 + Navitoclax; first compound 0.03162 µM)	relative viability (BGJ398 + Navitoclax; first compound 0.1 µM)	relative viability (BGJ398 + Navitoclax; first compound 0.3162 µM)	relative viability (BGJ398 + Navitoclax; first compound 1 µM)	relative viability (BGJ398; 0.01 µM)	relative viability (BGJ398; 0.03162 µM)	relative viability (BGJ398; 0.1 µM)	relative viability (BGJ398; 0.3162 µM)	relative viability (BGJ398; 1 µM)	relative viability ([2]; 0.02 µM)	relative viability ([2]; 0.06325 µM)	relative viability ([2]; 0.2 µM)	relative viability ([2]; 0.6325 µM)	relative viability ([2]; 2 µM)
SK-LU-1	0.506	0.417	0.558	0.542	0.407	0.832	0.988	0.865	1.02	0.908	0.983	1.07	1.22	0.978	1.03	1.06	1.21	1.09	1.02	0.969
PC-3 [JPC-3]	0.627	0.772	0.734	0.736	0.646	0.756	–	0.773	0.637	0.777	1.05	–	1.05	0.695	0.919	0.991	1.07	1.06	1	1.04
EMC-BAC-2	0.92	0.944	0.892	0.879	0.713	1.14	1.16	1.26	1.15	1.16	1.17	1.15	0.964	0.945	0.942	0.951	1.1	1.1	0.944	0.554
LK-2	0.769	0.813	0.847	0.828	0.567	0.72	0.733	0.726	0.529	0.317	0.867	0.776	0.638	0.399	0.263	1.02	1.06	1.14	0.896	0.566
NCI-H1299	–	–	–	–	–	1.06	1.06	1.03	1.03	1.06	0.99	1.05	1	0.993	1.02	0.996	1.04	1.02	1	1.01
LCLC-103H	0.676	0.701	0.634	0.665	0.666	–	–	–	–	–	0.984	0.903	1.06	0.792	0.79	0.957	1.05	0.969	0.918	0.852
ABC-1	–	–	–	–	–	–	–	–	–	–	0.891	0.988	0.902	0.816	0.927	0.977	0.987	0.893	0.931	0.526
NCI-H650	0.971	0.927	1.3	0.994	0.69	–	–	–	–	–	0.883	1.21	1.02	1.03	0.665	0.951	1.04	1.07	0.914	0.529
NCI-H1648	0.434	0.401	0.496	–	0.487	–	–	–	–	–	0.882	0.809	0.73	0.775	0.889	0.925	0.605	1.11	0.701	1
NCI-H661	0.709	0.557	0.606	0.526	0.618	–	–	–	–	–	0.977	0.997	0.983	0.987	0.914	1.01	1.04	1.02	0.972	1.07
NCI-H1563	–	–	–	–	–	–	–	–	–	–	0.992	0.993	0.936	0.831	0.701	1.06	0.93	1.11	0.822	1.12
A549	–	–	–	–	–	1.14	1.18	1.23	1.21	1.13	0.932	0.917	1.03	0.876	0.996	0.98	0.999	1.05	0.902	0.697
NCI-H522	0.75	0.781	0.806	0.771	0.659	–	–	–	–	–	0.918	0.89	1.04	0.82	0.874	0.934	1.13	1	0.75	0.751
NCI-H1623	–	–	–	–	–	–	–	–	–	–	1.08	0.805	1.05	0.908	1.03	0.936	0.806	0.909	0.957	0.786
SW 900	0.554	0.853	0.742	–	0.776	–	–	–	–	–	1	0.899	0.779	0.428	0.453	0.888	0.978	1.04	0.705	0.965
IA-LM	–	–	–	–	–	0.614	0.798	0.764	0.724	0.917	0.918	1.05	0.974	0.875	0.901	0.943	1.09	0.926	0.997	0.99
NCI-H358	0.145	0.122	0.139	0.126	0.11	–	–	–	–	–	0.843	0.942	1.1	0.882	1.3	1.08	0.959	0.955	0.887	0.425
EBC-1	–	–	–	–	–	0.467	0.526	0.444	0.447	0.396	0.975	0.981	1.09	1.03	1.14	0.913	1.04	0.957	1.05	1.01
